Laboratory results taken from US12187740B2, “Polymorphic forms of bictegravir potassium” (HONOUR LAB LIMITED, priority 2021, dated 2025).

Assay: Storage stability test of crystalline Form HN1 (PXRD, HPLC purity, Karl Fischer water content)
Format: physicochemical
Set-up: Water: unit not given here
Details: for Purity: HPLC; for Water: Karl Fischer
Procedure: X-ray powder diffraction spectrum was measured on a BRUKER axs D8 advance X-ray powder diffractometer having a copper-Ka radiation. Approximately 1 gm of sample was gently flattered on a sample holder and scanned from 2 to 50 degrees two-theta, at 0.02 degrees two theta per step and a step time of 10.8 seconds. The sample was simply placed on the sample holder. The sample was rotated at 30 rpm at a voltage 40 KV and current […].
In another aspect of the present invention Bictegravir potassium crystalline Form HN1 is stable at 5±3° C. and 25±2° C./60±5% RH (Relative humidity) and has the following stability data:
The stability of samples was tested by PXRD, HPLC and water content was measured by Karl Fischer method.

[1] = storage 25 ± 2° C./RH 60 ± 5%, 1st month
[2] = storage 25 ± 2° C./RH 60 ± 5%, 3rd month
[3] = storage 25 ± 2° C./RH 60 ± 5%, 6th month
[4] = storage 25 ± 2° C./RH 60 ± 5%, Initial
[5] = at 5±3° C. and 25±2° C./60±5% RH

Question: For `O=C(NCc1c(F)cc(F)cc1F)c1cn2c(c([O-])c1=O)C(=O)N1[C@H]3CC[C@H](C3)O[C@@H]1C2.[K+]` [Form HN1, Bictegravir potassium], which Purity (storage 5 ± 3° C., 1st month) is on record?
Answer: 99.87

Question: What about the Purity (storage 5 ± 3° C., 3rd month) of the same compound?
Answer: 99.81

Question: And the Purity (storage 5 ± 3° C., 6th month)?
Answer: 99.81

Question: What about the Purity (storage 5 ± 3° C., Initial) of the same compound?
Answer: 99.88

Question: What about the Purity [1] of the same compound?
Answer: 99.87

Question: And the Purity [2]?
Answer: 99.80

Question: What about the Purity [3] of the same compound?
Answer: 99.81

Question: What about the Purity [4] of the same compound?
Answer: 99.88

Question: And the Water (storage 5 ± 3° C., 1st month)?
Answer: 2.8

Question: And the Water (storage 5 ± 3° C., 3rd month)?
Answer: 2.8

Question: And the Water (storage 5 ± 3° C., 6th month)?
Answer: 2.8

Question: What about the Water (storage 5 ± 3° C., Initial) of the same compound?
Answer: 2.2

Question: And the Water [1]?
Answer: 2.8

Question: What about the Water [2] of the same compound?
Answer: 2.9

Question: And the Water [3]?
Answer: 2.8

Question: What about the Water [4] of the same compound?
Answer: 2.2

Question: And the “change in PXRD pattern after storage” value [5]?
Answer: no change

Question: What about the “change in water content after storage” value [5] of the same compound?
Answer: no change

Question: And the “decrease in purity after storage” value [5]?
Answer: no significant decrease

Question: What about the “stability on storage (overall)” value [5] of the same compound?
Answer: physically and chemically stable

Question: What about the PXRD (storage 5 ± 3° C., 1st month) of the same compound?
Answer: Form HN1

Question: What about the PXRD (storage 5 ± 3° C., 3rd month) of the same compound?
Answer: Form HN1

Question: What about the PXRD (storage 5 ± 3° C., 6th month) of the same compound?
Answer: Form HN1

Question: And the PXRD (storage 5 ± 3° C., Initial)?
Answer: Form HN1

Question: What about the PXRD [1] of the same compound?
Answer: Form HN1

Question: And the PXRD [2]?
Answer: Form HN1

Question: And the PXRD [3]?
Answer: Form HN1

Question: What about the PXRD [4] of the same compound?
Answer: Form HN1
